The values below come from article PMC9706563, “Development of Macrocyclic PRMT5–Adaptor Protein Interaction Inhibitors” (Journal of Medicinal Chemistry, 2022).

Structures are written as SMILES. Where two headings read alike, the source gives them in different places. Square brackets hold non-standard residues; d marks the D form. Peptide text beside a SMILES is read from it. * marks the point of attachment. FITC = O=C1OC2(c3ccc(O)cc3Oc3cc(O)ccc32)c2ccc(NC(=S)*)cc21; Phe(3-CF3) = N[C@@H](Cc1cccc(C(F)(F)F)c1)C(=O)O; Phe(4-COOH) = N[C@@H](Cc1ccc(C(=O)O)cc1)C(=O)O; Phe(3-Cl) = N[C@@H](Cc1cccc(Cl)c1)C(=O)O; 1Nal = N[C@@H](Cc1cccc2ccccc12)C(=O)O; hPhe = N[C@@H](CCc1ccccc1)C(=O)O; 2Pal = N[C@@H](Cc1ccccn1)C(=O)O; Cha = N[C@@H](CC1CCCCC1)C(=O)O; Cit = NC(=O)NCCC[C@H](N)C(=O)O; NMeV = CN[C@H](C(=O)O)C(C)C; NMeA = CN[C@@H](C)C(=O)O; Dab = NCC[C@H](N)C(=O)O; Nva = CCC[C@H](N)C(=O)O; Alloc = C=CCOC(=O)*

For the assay, the target named is T1, PRMT5-MEP50 (Homo sapiens, UniProt O14744).
T1 construct: The compounds were tested by means of FP with the full-length PRMT5-MEP50 complex; made in house
The experiment in a line: Direct binding fluorescence polarization (FP) assay of FITC-labeled peptides.

Setting [1] is: supplementary CSV, read-out: PRMT5-MEP50 Kd.
Where [2] appears, read: FITC-labeled peptide 1 nM, PRMT5-MEP50 titrated, read-out: KD.

T1 sequence (O14744 whole entry): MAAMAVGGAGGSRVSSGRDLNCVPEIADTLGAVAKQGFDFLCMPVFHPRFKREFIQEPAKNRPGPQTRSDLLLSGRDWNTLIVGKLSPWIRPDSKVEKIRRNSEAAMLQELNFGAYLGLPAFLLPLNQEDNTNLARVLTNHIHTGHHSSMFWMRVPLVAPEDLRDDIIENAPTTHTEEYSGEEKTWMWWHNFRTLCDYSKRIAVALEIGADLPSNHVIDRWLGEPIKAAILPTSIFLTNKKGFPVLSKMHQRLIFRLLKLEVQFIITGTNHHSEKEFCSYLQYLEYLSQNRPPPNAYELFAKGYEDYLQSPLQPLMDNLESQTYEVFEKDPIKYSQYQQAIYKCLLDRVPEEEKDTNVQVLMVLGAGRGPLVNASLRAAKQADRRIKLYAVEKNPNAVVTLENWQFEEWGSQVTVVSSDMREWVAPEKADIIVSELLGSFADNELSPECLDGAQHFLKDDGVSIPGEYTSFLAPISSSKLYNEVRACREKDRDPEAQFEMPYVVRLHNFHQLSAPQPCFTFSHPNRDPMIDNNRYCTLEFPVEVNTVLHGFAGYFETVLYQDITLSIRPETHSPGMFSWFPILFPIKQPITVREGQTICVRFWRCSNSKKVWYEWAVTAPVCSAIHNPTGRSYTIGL
T1 sequence (Q9BQA1 whole entry partner): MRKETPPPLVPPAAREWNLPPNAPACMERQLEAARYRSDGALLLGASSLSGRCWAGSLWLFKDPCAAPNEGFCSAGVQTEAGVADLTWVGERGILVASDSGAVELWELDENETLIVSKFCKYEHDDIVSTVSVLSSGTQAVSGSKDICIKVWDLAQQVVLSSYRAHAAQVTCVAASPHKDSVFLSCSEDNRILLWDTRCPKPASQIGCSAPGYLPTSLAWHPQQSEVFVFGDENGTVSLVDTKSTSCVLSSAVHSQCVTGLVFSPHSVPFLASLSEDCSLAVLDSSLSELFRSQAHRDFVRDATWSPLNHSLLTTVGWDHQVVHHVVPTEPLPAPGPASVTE
Protocol: The assay was performed in a buffer of 50 mM 4-(2-hydroxyethyl)-1-piperazineethanesulfonic acid (HEPES), 250 mM NaCl, 1 mM tris(2-carboxyethyl)phosphine (TCEP), and 0.01% (v/v) Tween 20, pH 8.0, in black, 384-well plates with a total volume of 10 μL per well. […] The plates were incubated at room temperature for 1 to 2 h and analyzed on a plate reader using 485 nm excitation and 535 nm emission wavelength. The assay was performed in triplicate.

As to `CC(=O)N[C@H](C(=O)N1CCC[C@H]1C(=O)NCC(=O)N[C@@H](CCC(N)=O)C(=O)N[C@@H](Cc1ccccn1)C(=O)N[C@@H](CC(=O)O)C(=O)N[C@@H](CC(=O)O)C(=O)N[C@@H](C)C(=O)N[C@@H](CC(=O)O)C(=O)N[C@@H](CCCCNC(=S)Nc1ccc2c(c1)C(=O)OC21c2ccc(O)cc2Oc2cc(O)ccc21)C(N)=O)C(C)C` [Compound S17] (Ac-VPGQ[2Pal]DDADK(FITC)-NH2), the dissociation constant (Kd) under setting [1] is above 1000 nM.

Turning to `CC(=O)N[C@H](C(=O)N1CCC[C@H]1C(=O)NCC(=O)N[C@@H](CCC(N)=O)C(=O)N[C@@H](Cc1ccc(C(=O)O)cc1)C(=O)N[C@@H](CC(=O)O)C(=O)N[C@@H](CC(=O)O)C(=O)N[C@@H](C)C(=O)N[C@@H](CC(=O)O)C(=O)N[C@@H](CCCCNC(=S)Nc1ccc2c(c1)C(=O)OC21c2ccc(O)cc2Oc2cc(O)ccc21)C(N)=O)C(C)C` [Compound S19] (Ac-VPGQ[Phe(4-COOH)]DDADK(FITC)-NH2), the Kd under setting [1] was above 1000 nM. Consider `CC(=O)NC1CCCCC[C@@H](C(=O)N[C@@H](CC(=O)O)C(=O)N[C@@H](C)C(=O)N[C@@H](CC(C(=O)O)C(=O)O)C(=O)N[C@@H](CCCCNC(=S)Nc2ccc3c(c2)C(=O)OC32c3ccc(O)cc3Oc3cc(O)ccc32)C(N)=O)NC(=O)[C@H](Cc2ccc([N+](=O)[O-])cc2)NC(=O)[C@H](CCC(N)=O)NC1=O` (stereo in doubt) [Compound 51], for which the Kd under setting [2] is above 2000 nM.

On to `CC(=O)N[C@@H](Cc1ccc(O)cc1)C(=O)N1CCC[C@H]1C(=O)NCC(=O)N[C@@H](CCC(N)=O)C(=O)N[C@@H](Cc1ccccc1)C(=O)N[C@@H](CC(=O)O)C(=O)N[C@@H](CC(=O)O)C(=O)N[C@@H](C)C(=O)N[C@@H](CC(=O)O)C(=O)N[C@@H](CCCCNC(=S)Nc1ccc2c(c1)C(=O)OC21c2ccc(O)cc2Oc2cc(O)ccc21)C(N)=O` [Compound S2] (Ac-YPGQFDDADK(FITC)-NH2), for which the Kd under setting [1] was above 1000 nM. Same read-out and setting: with `CC(=O)N[C@H](C(=O)N1CCC[C@H]1C(=O)NCC(=O)N[C@@H](CCC(N)=O)C(=O)N[C@@H](Cc1cccc(C(F)(F)F)c1)C(=O)N[C@@H](CC(=O)O)C(=O)N[C@@H](CC(=O)O)C(=O)N[C@@H](C)C(=O)N[C@@H](CC(=O)O)C(=O)N[C@@H](CCCCNC(=S)Nc1ccc2c(c1)C(=O)OC21c2ccc(O)cc2Oc2cc(O)ccc21)C(N)=O)C(C)C` [Compound S16] (Ac-VPGQ[Phe(3-CF3)]DDADK(FITC)-NH2) the figure was above 1000 nM; with `CC(=O)N[C@H](C(=O)N1CCC[C@H]1C(=O)NCC(=O)N[C@@H](CCCNC(N)=O)C(=O)N[C@@H](Cc1ccccc1)C(=O)N[C@@H](CC(=O)O)C(=O)N[C@@H](CC(=O)O)C(=O)N[C@@H](C)C(=O)N[C@@H](CC(=O)O)C(=O)N[C@@H](CCCCNC(=S)Nc1ccc2c(c1)C(=O)OC21c2ccc(O)cc2Oc2cc(O)ccc21)C(N)=O)C(C)C` [Compound S11] (Ac-VPG[Cit]FDDADK(FITC)-NH2), above 1000 nM. On to `CC(=O)N[C@H](C(=O)N1CCC[C@H]1C(=O)NC1CC=CCC[C@@H](C(=O)N[C@@H](CC(=O)O)C(=O)N[C@@H](C)C(=O)N[C@@H](CC(=O)O)C(=O)N[C@@H](CCCCNC(=S)Nc2ccc3c(c2)C(=O)OC32c3ccc(O)cc3Oc3cc(O)ccc32)C(N)=O)NC(=O)[C@H](Cc2ccccc2)NC(=O)[C@H](CCC(N)=O)NC1=O)C(C)C` (stereo partly drawn) [Compound 18], for which the Kd under setting [2] came out at 352 ± 49 nM. `CC(=O)N[C@H](C(=O)N1CCC[C@H]1C(=O)NCC(=O)N[C@@H](CCC(N)=O)C(=O)N[C@@H](Cc1cccc(Cl)c1)C(=O)N[C@@H](CC(=O)O)C(=O)N[C@@H](CC(=O)O)C(=O)N[C@@H](C)C(=O)N[C@@H](CC(=O)O)C(=O)N[C@@H](CCCCNC(=S)Nc1ccc2c(c1)C(=O)OC21c2ccc(O)cc2Oc2cc(O)ccc21)C(N)=O)C(C)C` [Compound S15] (Ac-VPGQ[Phe(3-Cl)]DDADK(FITC)-NH2): under setting [1], the Kd is above 1000 nM.

As for `CC(=O)N[C@H](C(=O)N1CCC[C@H]1C(=O)NCC(=O)N[C@@H](CCC(N)=O)C(=O)N[C@@H](Cc1ccc(O)cc1)C(=O)N[C@@H](CC(=O)O)C(=O)N[C@@H](CC(=O)O)C(=O)N[C@@H](C)C(=O)N[C@@H](CC(=O)O)C(=O)N[C@@H](CCCCNC(=S)Nc1ccc2c(c1)C(=O)OC21c2ccc(O)cc2Oc2cc(O)ccc21)C(N)=O)C(C)C` [Compound S18] (Ac-VPGQYDDADK(FITC)-NH2), under setting [1], the Kd is above 1000 nM. On the same count and under the same terms, with `CC(=O)N[C@H](C(=O)N1CCC[C@H]1C(=O)NCC(=O)N[C@@H](CCC(N)=O)C(=O)N[C@@H](Cc1ccccc1)C(=O)N[C@@H](CC(=O)O)C(=O)N[C@@H](CC(=O)O)C(=O)N[C@@H](CC1CCCCC1)C(=O)N[C@@H](CC(=O)O)C(=O)N[C@@H](CCCCNC(=S)Nc1ccc2c(c1)C(=O)OC21c2ccc(O)cc2Oc2cc(O)ccc21)C(N)=O)C(C)C` [Compound S30] (Ac-VPGQFDD[Cha]DK(FITC)-NH2) the figure was above 1000 nM.

For `CCC[C@H](NC(=O)[C@H](CC(=O)O)NC(=O)[C@H](CC(=O)O)NC(=O)[C@H](Cc1ccccc1)NC(=O)[C@H](CCC(N)=O)NC(=O)CNC(=O)[C@@H]1CCCN1C(=O)[C@@H](NC(C)=O)C(C)C)C(=O)N[C@@H](CC(=O)O)C(=O)N[C@@H](CCCCNC(=S)Nc1ccc2c(c1)C(=O)OC21c2ccc(O)cc2Oc2cc(O)ccc21)C(N)=O` [Compound S28] (Ac-VPGQFDD[Nva]DK(FITC)-NH2), the equilibrium dissociation constant (Kd) under setting [1] was above 1000 nM. As for `CC(=O)N[C@H](C(=O)N1CCC[C@H]1C(=O)NCC(=O)N[C@@H](CCC(N)=O)C(=O)N[C@@H](Cc1ccccc1)C(=O)N[C@@H](CC(=O)O)C(=O)N[C@@H](CC(=O)O)C(=O)N(C)[C@@H](C)C(=O)N[C@@H](CC(=O)O)C(=O)N[C@@H](CCCCNC(=S)Nc1ccc2c(c1)C(=O)OC21c2ccc(O)cc2Oc2cc(O)ccc21)C(N)=O)C(C)C` [Compound 45, Ac-VPGQFDD-(N-Me)A-DK(Fitc)-NH2] (Ac-VPGQFDD[NMeA]DK(FITC)-NH2), the Kd under setting [1] is above 2000 nM. The same measure, in the same setting: for `CC(C)[C@H](NC(=O)[C@H](CCCNC(=N)N)NC(=O)[C@H](CO)NC(=O)COCCOCCNC(=S)Nc1ccc2c(c1)C(=O)OC21c2ccc(O)cc2Oc2cc(O)ccc21)C(=O)N[C@H](C(=O)N1CCC[C@H]1C(=O)N[C@@H]1CNC(=O)CC[C@H](C(=O)N[C@@H](CC(=O)O)C(=O)N[C@@H](C)C(=O)N[C@@H](CC(=O)O)C(N)=O)NC(=O)[C@H](Cc2ccccc2)NC(=O)[C@H](CCC(N)=O)NC1=O)C(C)C` [Compound 10] the value was above 2000 nM; for `CC(=O)N[C@H](C(=O)N1CCC[C@H]1C(=O)NCC(=O)N[C@@H](CCC(N)=O)C(=O)N[C@@H](Cc1cccc2ccccc12)C(=O)N[C@@H](CC(=O)O)C(=O)N[C@@H](CC(=O)O)C(=O)N[C@@H](C)C(=O)N[C@@H](CC(=O)O)C(=O)N[C@@H](CCCCNC(=S)Nc1ccc2c(c1)C(=O)OC21c2ccc(O)cc2Oc2cc(O)ccc21)C(N)=O)C(C)C` [Compound S25] (Ac-VPGQ[1Nal]DDADK(FITC)-NH2), above 1000 nM; for `CC(=O)N[C@H](C(=O)N1CCC[C@H]1C(=O)NCC(=O)N[C@@H](CCC(N)=O)C(=O)N[C@@H](Cc1ccccc1)C(=O)N[C@@H](CC(=O)O)C(=O)N[C@@H](CC(=O)O)C(=O)N[C@@H](C)C(=O)N[C@@H](CCc1ccccc1)C(=O)N[C@@H](CCCCNC(=S)Nc1ccc2c(c1)C(=O)OC21c2ccc(O)cc2Oc2cc(O)ccc21)C(N)=O)C(C)C` [Compound S34] (Ac-VPGQFDDA[hPhe]K(FITC)-NH2), above 1000 nM. As to `CC(=O)N[C@@H](CCC(=O)O)C(=O)N1CCC[C@H]1C(=O)NCC(=O)N[C@@H](CCC(N)=O)C(=O)N[C@@H](Cc1ccccc1)C(=O)N[C@@H](CC(=O)O)C(=O)N[C@@H](CC(=O)O)C(=O)N[C@@H](C)C(=O)N[C@@H](CC(=O)O)C(=O)N[C@@H](CCCCNC(=S)Nc1ccc2c(c1)C(=O)OC21c2ccc(O)cc2Oc2cc(O)ccc21)C(N)=O` [Compound S7] (Ac-EPGQFDDADK(FITC)-NH2), the dissociation constant (Kd) under setting [1] came to 695 ± 78 nM.

As for `C=CCOC(=O)NCC[C@H](NC(=O)CNC(=O)[C@@H]1CCCN1C(=O)[C@@H](NC(C)=O)C(C)C)C(=O)N[C@@H](Cc1ccccc1)C(=O)N[C@@H](CC(=O)O)C(=O)N[C@@H](CC(=O)O)C(=O)N[C@@H](C)C(=O)N[C@@H](CC(=O)O)C(=O)N[C@@H](CCCCNC(=S)Nc1ccc2c(c1)C(=O)OC21c2ccc(O)cc2Oc2cc(O)ccc21)C(N)=O` [Compound S10] (Ac-VPG[Dab](Alloc)FDDADK(FITC)-NH2), under setting [1], the Kd was above 1000 nM.

As to `CC(=O)N(C)[C@H](C(=O)N1CCC[C@H]1C(=O)NCC(=O)N[C@@H](CCC(N)=O)C(=O)N[C@@H](Cc1ccccc1)C(=O)N[C@@H](CC(=O)O)C(=O)N[C@@H](CC(=O)O)C(=O)N[C@@H](C)C(=O)N[C@@H](CC(=O)O)C(=O)N[C@@H](CCCCNC(=S)Nc1ccc2c(c1)C(=O)OC21c2ccc(O)cc2Oc2cc(O)ccc21)C(N)=O)C(C)C` [Compound 49] (Ac-[NMeV]PGQFDDADK(FITC)-NH2), the Kd under setting [1] is above 2000 nM.

On to `CC(=O)N[C@H](C(=O)N1CCC[C@H]1C(=O)NCC(=O)N[C@@H](CCC(N)=O)C(=O)N[C@@H](Cc1ccccc1)C(=O)N[C@@H](CC(=O)O)C(=O)N[C@@H](CC(=O)O)C(=O)N[C@@H](C)C(=O)N[C@@H](Cc1c[nH]c2ccccc12)C(=O)N[C@@H](CCCCNC(=S)Nc1ccc2c(c1)C(=O)OC21c2ccc(O)cc2Oc2cc(O)ccc21)C(N)=O)C(C)C` [Compound S33] (Ac-VPGQFDDAWK(FITC)-NH2), for which, under setting [1], the dissociation constant (Kd) is above 1000 nM. On the same count and under the same terms, for `CC(=O)N[C@@H](Cc1c[nH]c2ccccc12)C(=O)N1CCC[C@H]1C(=O)NCC(=O)N[C@@H](CCC(N)=O)C(=O)N[C@@H](Cc1ccccc1)C(=O)N[C@@H](CC(=O)O)C(=O)N[C@@H](CC(=O)O)C(=O)N[C@@H](C)C(=O)N[C@@H](CC(=O)O)C(=O)N[C@@H](CCCCNC(=S)Nc1ccc2c(c1)C(=O)OC21c2ccc(O)cc2Oc2cc(O)ccc21)C(N)=O` [Compound S5] (Ac-WPGQFDDADK(FITC)-NH2) the value was above 1000 nM. For `CC(=O)N[C@H](C(=O)N1CCC[C@H]1C(=O)NCC(=O)N[C@@H](CCN)C(=O)N[C@@H](Cc1ccccc1)C(=O)N[C@@H](CC(=O)O)C(=O)N[C@@H](CC(=O)O)C(=O)N[C@@H](C)C(=O)N[C@@H](CC(=O)O)C(=O)N[C@@H](CCCCNC(=S)Nc1ccc2c(c1)C(=O)OC21c2ccc(O)cc2Oc2cc(O)ccc21)C(N)=O)C(C)C` [Compound S9] (Ac-VPG[Dab]FDDADK(FITC)-NH2), under setting [1], the Kd was above 1000 nM.
